The record followed here is BindingDB's records for doi:10.7270/Q2TX3CSC (Vanderbilt Screening Center for GPCRs, Ion Channels and …, 2009).

Non-standard residues stand in square brackets, D forms with d. Residues, ends and D or L forms follow the SMILES beside them. ξ: configuration not given here. *: point of attachment. ξF = NC(Cc1ccccc1)C(=O)O; Cbz = O=C(OCc1ccccc1)*

One experiment addresses T1, Solute carrier family 12 member 5 (Homo sapiens, UniProt Q9H2X9).
T1 sequence (Q9H2X9 whole entry): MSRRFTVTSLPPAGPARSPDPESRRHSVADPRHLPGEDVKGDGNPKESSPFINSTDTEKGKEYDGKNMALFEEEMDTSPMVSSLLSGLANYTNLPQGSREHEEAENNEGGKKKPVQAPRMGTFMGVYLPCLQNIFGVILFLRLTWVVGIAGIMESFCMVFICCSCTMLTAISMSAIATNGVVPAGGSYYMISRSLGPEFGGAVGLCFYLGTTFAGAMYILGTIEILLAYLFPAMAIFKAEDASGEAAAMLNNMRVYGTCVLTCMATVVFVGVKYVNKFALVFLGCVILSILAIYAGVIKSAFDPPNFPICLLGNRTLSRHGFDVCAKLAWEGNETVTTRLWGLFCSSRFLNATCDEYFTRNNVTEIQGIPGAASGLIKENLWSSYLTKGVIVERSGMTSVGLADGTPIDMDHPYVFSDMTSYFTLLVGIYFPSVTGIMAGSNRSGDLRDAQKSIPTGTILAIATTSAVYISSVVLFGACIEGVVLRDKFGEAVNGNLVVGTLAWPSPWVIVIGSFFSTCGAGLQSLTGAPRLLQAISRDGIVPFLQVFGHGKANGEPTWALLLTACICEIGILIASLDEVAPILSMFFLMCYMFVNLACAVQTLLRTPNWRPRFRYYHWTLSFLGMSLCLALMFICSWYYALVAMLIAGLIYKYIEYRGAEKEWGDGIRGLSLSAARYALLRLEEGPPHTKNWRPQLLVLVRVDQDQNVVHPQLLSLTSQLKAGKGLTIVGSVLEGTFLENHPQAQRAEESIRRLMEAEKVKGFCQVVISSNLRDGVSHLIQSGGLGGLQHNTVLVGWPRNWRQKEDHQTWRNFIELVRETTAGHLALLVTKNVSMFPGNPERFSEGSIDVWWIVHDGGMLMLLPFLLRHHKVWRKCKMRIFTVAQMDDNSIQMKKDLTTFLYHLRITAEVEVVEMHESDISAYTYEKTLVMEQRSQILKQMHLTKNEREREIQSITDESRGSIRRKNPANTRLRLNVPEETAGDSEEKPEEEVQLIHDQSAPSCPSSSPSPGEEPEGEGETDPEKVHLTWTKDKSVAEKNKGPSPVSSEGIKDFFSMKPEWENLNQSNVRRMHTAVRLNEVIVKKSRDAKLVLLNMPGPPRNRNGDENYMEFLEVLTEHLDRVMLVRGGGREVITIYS
The experiment is described as follows: KCC2 modulator potency by thallium flux, dose response, cell-based, HEK293 KCC2, FluoZin-2 fluorescence (AID 1736).
Conditions: not given
Broadly, the EC50 is the concentration needed to bring the measured effect to its halfway point. With `Cc1n[nH]c(O)c1C(c1ccc(-c2ccc(F)cc2)o1)c1c(C)n[nH]c1O` [4-[[5-(4-fluorophenyl)furan-2-yl]-(3-methyl-5-oxo-1,2-dihydropyrazol-4-yl)methyl]-5-methyl-1,2-dihydropyrazol-3-one], the response was half-maximal at 8.39 µM (EC50). That is a single-digit micromolar value.

Regarding `COc1cc(C(=S)N2CCOCC2)ccc1OC(=O)Cc1ccc(F)cc1` [(2-methoxy-4-morpholin-4-ylcarbothioyl-phenyl) 2-(4-fluorophenyl)ethanoate], a half-maximal effect (EC50) was put at 29.4 µM.

The compound `Cc1ccc(S(=O)(=O)N2CCC(=O)N(C(COCc3ccccc3)Cc3ccccc3)CC2)cc1` (stereo unspecified) [1-(4-methylphenyl)sulfonyl-4-(1-phenyl-3-phenylmethoxy-propan-2-yl)-1,4-diazepan-5-one] yielded an EC50 of 1.69 µM.

Compound `c1ccc(-c2nnc(Sc3ncnc4c3cnn4-c3ccccc3)[nH]2)cc1` [SMR000019566] displayed an EC50 of 5.95 µM.

In turn, `O=C(CN1C(=O)NC2(CCCC2)C1=O)Nc1nc(-c2ccc(F)cc2)cs1` [2-(2,4-diketo-1,3-diazaspiro[4.4]nonan-3-yl)-N-[4-(4-fluorophenyl)thiazol-2-yl]acetamide] registered an EC50 of 0.0699 µM.

Consider `Cc1ccc2[nH]c(=O)c(CN(CCc3ccccc3)Cc3nnnn3CC3CCCO3)cc2c1` (stereo unspecified) [SMR000003177], for which the midpoint of the response, the EC50, lay at 4.26 µM. This EC50 is about 61-fold higher than that of the compound before.

For the compound `Cc1ccc(NC(=O)CSc2ccc(-c3ccco3)nn2)cc1` [2-[6-(furan-2-yl)pyridazin-3-yl]sulfanyl-N-(4-methylphenyl)acetamide], the response was half-maximal at 3.48 µM (EC50).

The compound `O=C(OCc1ccccn1)c1ccc(COc2ccccc2Cl)o1` [5-(2-Chloro-phenoxymethyl)-furan-2-carboxylic acid pyridin-2-ylmethyl ester] returned an EC50 of 14.3 µM.

As for `Cc1onc(-c2ccccc2Cl)c1C(=O)NC(=S)Nc1ccc(C(C)C)cc1` [3-(2-chlorophenyl)-5-methyl-N-(p-cumenylthiocarbamoyl)isoxazole-4-carboxamide], the EC50 was 0.271 µM.

On to `O=C(O)CC/C(=C\c1ccc(N2CCOCC2)c([N+](=O)[O-])c1)c1nc2ccccc2s1` [(E)-4-(1,3-benzothiazol-2-yl)-5-(4-morpholin-4-yl-3-nitro-phenyl)pent-4-enoic acid], for which the EC50 stood at 2.66 µM.

`CCOC(=O)CNC(=O)C(Cc1ccccc1)NC(=O)OCc1ccccc1` (stereo unspecified) [2-[[1-oxo-3-phenyl-2-(phenylmethoxycarbonylamino)propyl]amino]acetic acid ethyl ester] (Cbz-[ξF]-Gly-OEt) gave an EC50 of 3.01 µM.

`Cc1ccc(NC(=O)c2ccccc2NS(=O)(=O)c2ccc(Cl)s2)cc1` [2-[(5-chloranylthiophen-2-yl)sulfonylamino]-N-(4-methylphenyl)benzamide]: the EC50 came out at 1.17 µM.

In turn, `Oc1ccccc1CN=Nc1nc2ccccc2o1` [(6E)-6-[(1,3-benzoxazol-2-ylhydrazo)methylidene]-1-cyclohexa-2,4-dienone] had an EC50 of 98.9 µM.

The compound `O=C(CC(C(=O)N1CCc2ccccc21)n1ccnc1)N1CCc2ccccc2C1` (stereo unspecified) [1-(2,3-dihydroindol-1-yl)-4-(3,4-dihydro-1H-isoquinolin-2-yl)-2-(1-imidazolyl)butane-1,4-dione] gave an EC50 of 1770 µM.

Compound `O=[N+]([O-])c1ccc(CSc2nnc(SCc3ccccc3)s2)cc1` [2-(benzylthio)-5-[(4-nitrobenzyl)thio]-1,3,4-thiadiazole] showed an EC50 of 2.24 µM.

`N#Cc1nc(-c2cccs2)oc1N1CCN(Cc2ccccc2)CC1` [5-(4-benzyl-1-piperazinyl)-2-(2-thienyl)-1,3-oxazole-4-carbonitrile] had a 50% effective concentration (EC50) of 3.58 µM. This EC50 is about 1.6-fold higher than that of the compound before.

Consider `Cc1cccc(NC2=NN=C(c3ccccc3F)CS2)c1C`, for which the EC50 worked out at 27.9 µM.

For `CC[C@H](CO)Nc1nc(Nc2cccc(Cl)c2)c2ncn(C(C)C)c2n1` [(R)-2-(6-(3-chlorophenylamino)-9-isopropyl-9H-purin-2-ylamino)butan-1-ol], the EC50 was found to be 9.54 µM.

Regarding `Cc1cccc(-c2nc(C[S+]([O-])CC(=O)N3CCc4ccccc4C3)c(C)o2)c1` (stereo unspecified) [1-(3,4-dihydro-1H-isoquinolin-2-yl)-2-[[5-methyl-2-(3-methylphenyl)-1,3-oxazol-4-yl]methylsulfinyl]ethanone], the EC50 came to 7.28 µM.

`COc1cc(C(=S)N2CCOCC2)cc(OC)c1OC(=O)Cc1ccccc1` [(2,6-dimethoxy-4-morpholin-4-ylcarbothioyl-phenyl) 2-phenylethanoate] returned an EC50 of 0.81 µM. Compared with the last compound, the EC50 is about 9-fold lower.

Take `O=C(Cn1nc(-c2ccccc2)ccc1=O)NCc1ccc2c(c1)OCO2` [2-(6-keto-3-phenyl-pyridazin-1-yl)-N-piperonyl-acetamide]: the midpoint of the response, the EC50, lay at 3.26 µM.

As to `CCOc1cc(Br)ccc1S(=O)(=O)NCc1ccccc1` [4-bromanyl-2-ethoxy-N-(phenylmethyl)benzenesulfonamide], the half-maximal effective concentration (EC50) was 14.7 µM.

The compound `Cn1c(CSc2nc3ccccc3s2)nc2ccccc21` [2-(1-Methyl-1H-benzoimidazol-2-ylmethylsulfanyl)-benzothiazole] showed an EC50 of 14.8 µM. This EC50 and that of the compound before are within 1.5-fold of each other.

Compound `NC(=S)NN=C1C(=O)N(Cc2ccc(F)cc2)c2ccccc21` [1-[(Z)-[1-[(4-fluorophenyl)methyl]-2-oxidanylidene-indol-3-ylidene]amino]thiourea] had an EC50 of 144 µM.

`O=C(CSc1nnnn1-c1ccc(Cl)cc1)N1CCc2ccccc2C1` [2-[1-(4-chlorophenyl)tetrazol-5-yl]sulfanyl-1-(3,4-dihydro-1H-isoquinolin-2-yl)ethanone]: a half-maximal response (EC50) required 4.09 µM.

Take `O=C(COC(=O)c1cc([N+](=O)[O-])ccc1NCCO)c1ccccc1` [2-(2-hydroxyethylamino)-5-nitro-benzoic acid phenacyl ester]: the EC50 was 9.16 µM. Compared with the last compound, the EC50 is about 2.2-fold higher.

The compound `O=C(CCSCCc1ccccn1)Nc1ccc(Cc2ccncc2)cc1` [3-(2-pyridin-2-ylethylsulfanyl)-N-[4-(pyridin-4-ylmethyl)phenyl]propanamide] showed an EC50 of 9.8 µM.

As to `CC1Cc2ccccc2N1C(=O)c1ccc(N2CCCCC2)c([N+](=O)[O-])c1` (stereo unspecified) [(2-methyl-2,3-dihydroindol-1-yl)-(3-nitro-4-piperidin-1-yl-phenyl)methanone], the EC50 was 0.92 µM.

For `O=C(NC(=S)NNC(=O)c1cnccn1)c1ccc(Cl)cc1` [4-Chloro-N-[N'-(pyrazine-2-carbonyl)-hydrazinocarbothioyl]-benzamide], a half-maximal response (EC50) required 23.3 µM.

In the case of `O=C(CC(Cc1ccccc1)c1ccco1)NC1CCCCC1` (stereo unspecified) [MLS000556612], the EC50 is 212 µM.

On to `O=[N+]([O-])c1cc(-n2c(O)c3c(c2O)CCCC3)ccc1NC1CCN(Cc2ccccc2)CC1` [2-[3-nitro-4-[[1-(phenylmethyl)-4-piperidinyl]amino]phenyl]-3a,4,5,6,7,7a-hexahydroisoindole-1,3-dione], for which a half-maximal effect (EC50) was put at 221 µM.

`Cn1c(C(=O)NCCCN2CCN(c3ccccc3F)CC2)cc2c(=O)n(C)c3ccccc3c21` [MLS000118127] had an EC50 of 10.3 µM.

For `CC(C)N1C(=O)S/C(=C/c2ccccc2OCc2ccc(C(=O)O)cc2)C1=O`, a half-maximal response (EC50) required 1.48 µM.

`O=C(Cn1nnc2c(cnn2-c2ccccc2)c1=O)N1CCN(c2ccccc2F)CC1` [3-[2-[4-(2-fluorophenyl)-1-piperazinyl]-2-oxoethyl]-7-phenyl-4-pyrazolo[3,4-d]triazinone] registered an EC50 of 147 µM.

Compound `O=C(OCn1ncc(Cl)c(Cl)c1=O)c1ccc(F)cc1` [(4,5-dichloro-6-oxopyridazin-1-yl)methyl 4-fluorobenzoate] displayed an EC50 of 14.1 µM.

The experiment is the same for the next values; noted with them: inactive by the depositor's call.
With `O=C(COc1ccc2ccccc2c1)NN=Cc1ccccn1` [2-(2-naphthalenyloxy)-N-(2-pyridinylmethylideneamino)acetamide], the midpoint of the response, the EC50, lay at 330 µM.

`Cn1cc(SCC(=O)N2CCN(c3ccccc3)CC2)c2ccccc21` [2-(1-methylindol-3-yl)sulfanyl-1-(4-phenylpiperazin-1-yl)ethanone] returned an EC50 of 78.4 µM.

In turn, `Cc1nc(CC(=O)Nc2nc(-c3ccccc3)cs2)cs1` [2-(2-methyl-1,3-thiazol-4-yl)-N-(4-phenyl-1,3-thiazol-2-yl)acetamide] showed an EC50 of 1.81 µM.

With `O=C(CSc1nnnn1-c1ccccc1)Nc1nsc(-c2ccccc2)n1` [2-(1-phenyltetrazol-5-yl)sulfanyl-N-(5-phenyl-1,2,4-thiadiazol-3-yl)acetamide], the EC50 came out at 1.4 µM. This EC50 and that of the compound before are within 1.5-fold of each other.

Consider `Cc1nc2c(-c3ccc(Cl)cc3)c(C)[nH]n2c(=O)c1Cc1ccccc1` [6-benzyl-3-(4-chlorophenyl)-2,5-dimethylpyrazolo[1,5-a]pyrimidin-7(4H)-one], for which the 50% effective concentration (EC50) amounted to 43.9 µM.

For the compound `CN(c1ccccc1)c1ccc(/C=C(\CCC(=O)O)c2nc3ccccc3s2)cc1[N+](=O)[O-]`, the response was half-maximal at 8.17 µM (EC50).
